From article PMC10275055, “Preventing recurrence in Sonic Hedgehog Subgroup Medulloblastoma using the OLIG2 inhibitor CT-179” (Research Square, 2023)
Read-outs that look alike come from different tables or passages of the source.

Columns and labels:
[1] = biological target: T1, Fetal Liver Tyrosine Kinase 3 (FLT3) (Homo sapiens, UniProt P36888); experiment: Kinase profiling (KINOMEscan / SelectScreen) and dose response follow-up, FLT3; type: biochemical; conditions: ATP equal to Km
T1 sequence (P36888 27-993): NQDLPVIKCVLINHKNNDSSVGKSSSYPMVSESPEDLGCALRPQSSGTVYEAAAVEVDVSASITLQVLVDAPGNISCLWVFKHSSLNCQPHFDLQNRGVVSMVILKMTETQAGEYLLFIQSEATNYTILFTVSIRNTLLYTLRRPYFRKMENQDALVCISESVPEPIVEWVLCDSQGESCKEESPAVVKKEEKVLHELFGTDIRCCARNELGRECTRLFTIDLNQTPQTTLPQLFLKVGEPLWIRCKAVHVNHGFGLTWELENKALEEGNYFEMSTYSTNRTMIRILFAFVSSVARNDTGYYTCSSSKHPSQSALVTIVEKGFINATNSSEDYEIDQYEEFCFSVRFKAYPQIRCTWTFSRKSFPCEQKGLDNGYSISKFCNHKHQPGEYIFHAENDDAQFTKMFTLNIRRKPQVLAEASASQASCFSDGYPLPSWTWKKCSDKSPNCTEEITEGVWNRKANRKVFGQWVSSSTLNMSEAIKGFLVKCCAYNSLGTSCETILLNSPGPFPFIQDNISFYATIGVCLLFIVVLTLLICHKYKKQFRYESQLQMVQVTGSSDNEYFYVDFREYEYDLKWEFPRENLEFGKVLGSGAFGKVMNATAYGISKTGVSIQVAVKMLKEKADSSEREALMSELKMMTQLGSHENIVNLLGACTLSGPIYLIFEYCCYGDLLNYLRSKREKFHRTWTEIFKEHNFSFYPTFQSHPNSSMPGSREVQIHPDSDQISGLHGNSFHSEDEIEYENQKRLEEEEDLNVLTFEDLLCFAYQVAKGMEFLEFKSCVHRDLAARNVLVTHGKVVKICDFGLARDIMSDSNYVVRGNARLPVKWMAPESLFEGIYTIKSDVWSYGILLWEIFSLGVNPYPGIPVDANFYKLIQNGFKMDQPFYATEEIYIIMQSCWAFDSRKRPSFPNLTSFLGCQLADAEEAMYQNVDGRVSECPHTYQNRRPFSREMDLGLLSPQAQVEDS
Method: (§1) Effect of CT-179 on protein kinase activity was evaluated using the Thermofisher Scientific SelectScreen Kinase Profiling Service. Over 400 human protein kinases were tested in the presence of 1 μM final concentration of CT-179 at an ATP concentration equal to the known ATP Km for each kinase. The experiment was done by Curtana Pharmaceuticals. Data is presented as percentage of inhibition of enzyme activity. Software CORAL was used to make the kinome tree, which is available from: http://phanstiel-lab.med.unc.edu/CORAL/.

[2] = biological target: T2, Discoidin Domain Receptor Tyrosine Kinase 2 (DDR2) (Homo sapiens, UniProt Q16832); experiment: Kinase profiling (KINOMEscan / SelectScreen), DDR2; type: biochemical; conditions: ATP equal to Km
T2 sequence (Q16832 22-855): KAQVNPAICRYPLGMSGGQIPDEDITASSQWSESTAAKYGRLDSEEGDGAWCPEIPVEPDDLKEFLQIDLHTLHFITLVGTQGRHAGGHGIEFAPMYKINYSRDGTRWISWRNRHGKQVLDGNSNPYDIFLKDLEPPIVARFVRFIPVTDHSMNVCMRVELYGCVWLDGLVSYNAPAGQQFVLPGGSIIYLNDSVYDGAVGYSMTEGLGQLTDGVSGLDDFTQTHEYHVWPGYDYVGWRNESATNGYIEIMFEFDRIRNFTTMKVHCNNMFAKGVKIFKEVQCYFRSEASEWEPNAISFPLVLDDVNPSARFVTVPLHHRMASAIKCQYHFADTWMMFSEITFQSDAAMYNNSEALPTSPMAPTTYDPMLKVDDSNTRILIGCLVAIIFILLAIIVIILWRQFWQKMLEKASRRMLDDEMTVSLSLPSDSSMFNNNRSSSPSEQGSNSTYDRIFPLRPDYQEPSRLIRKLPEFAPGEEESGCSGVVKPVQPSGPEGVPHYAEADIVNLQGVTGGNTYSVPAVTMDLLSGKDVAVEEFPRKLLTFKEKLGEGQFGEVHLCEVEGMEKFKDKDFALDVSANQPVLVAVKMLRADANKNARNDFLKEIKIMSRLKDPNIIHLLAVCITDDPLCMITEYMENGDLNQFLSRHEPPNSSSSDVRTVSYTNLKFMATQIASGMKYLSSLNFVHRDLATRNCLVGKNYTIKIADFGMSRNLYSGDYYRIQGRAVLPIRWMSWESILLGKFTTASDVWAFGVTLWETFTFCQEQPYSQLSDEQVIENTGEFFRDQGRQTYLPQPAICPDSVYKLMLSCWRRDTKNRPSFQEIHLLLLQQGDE
Method: as §1

[3] = In vivo pharmacokinetic studies of CT-179 in mice, plasma and brain; parameters: species or system mice (C57Bl/J6); conditions: mouse; for bioavailability: in vivo, po, PO 20 mg/kg vs IV 1 mg/kg
Method: The in vivo pharmacokinetic studies (EXT-240 and EXT-241) were performed under contract by Biodura Inc.

[4] = system: Daoy MB cell line; experiment: Cell viability, 7 days treatment, Daoy; type: cell-based; conditions: Homo sapiens, 168 h
Method: (§2) Cell proliferation was determined by a CellTiter 96® Non-Radioactive Cell Proliferation Assay (Promega) kit. Absorbance at 490 nm was measured on a Biotek PowerWave (Biotek, USA) plate scanner to obtain raw data. Average absorbance from triplicate wells were plotted against concentration using GraphPad Prism software v.7.0 (GraphPad software). At the indicated time points, cells were stained using FITC-conjugated Annexin V and Annexin V binding buffer (BD Pharmingen™) according to the manufacturer’s instructions. Annexin V or propidium iodide (PI)-positive cells were analyzed using a Fortessa 5 Flow Cytometer (Becton Dickinson) and data was analyzed using FlowJo® software (Tree Star).

[5] = system: HEK293 cells; experiment: Cell viability, OLIG2-negative HEK293; type: cell-based, human; conditions: HEK293, does not express OLIG2
Method: as §2

Cc1cc(NCCCN(C)C)nc(NC(=O)Nc2ccc(Cl)c(Cl)c2)n1 [CT-179]
inhibition at 1 µM [1]: 84%
inhibition at 1 µM [2]: 80%
Kp at 4 h ([3]; brain, 4 hours after single PO dose, 20 mg/kg, read-out: brain to plasma (B/P) ratio, average): 6.72
Kp ([3]; brain, second study, PO doses of 1 and 5 mg/Kg once daily, read-out: estimated brain to plasma ratio): > 10
bioavailability ([3]; 20 mg/kg, read-out: bioavailability, mean): 75%
bioavailability ([3]; 20 mg/kg, read-out: bioavailability, range estimated): 58 to 91%
IC50 [4]: 144 nM
growth suppression [5]: not suppressed
